The source of these data is patent US20230101312A1, “SOS1 INHIBITORS” (Mirati Therapeutics, Inc., priority 2020, published 2023).

The subject of the assay is MKN1 cells or H358. In words: pERK inhibition in-cell western. As to conditions: MKN1 or H358 cells (cell line not given), 1 hour with compound, GAPDH normalized. The class given is cell-based. Here is the method: This Example illustrates that exemplary compounds of the present invention prevent KRas-mediated GTP nucleotide exchange mediated by SOS1 to inhibit KRas activity thereby inhibiting the generation of the downstream effector pERK. MKN1 cells (15,000/w) or H358 (30,000/w) were seeded in a black clear flat bottom 96-well cell culture plate (Corning, #3904) and incubated at 37° C. overnight. Assay day 1, cells were dosed with compounds of Formula (I) with a 10 μm starting concentration and serially diluted 3× for a total of 9 concentrations. The cells were incubated for 1 hour with the compounds solubilized in DMSO at 37° C. Cells were immediately fixed by adding 50 μL of 4% formaldehyde to all wells in a fume hood and the plates were incubated for 20 minutes at room temperature. The formaldehyde was discarded from the plates and 150 μL of ice-cold methanol was added to permeabilize the cells for 10 minutes at −20° C. The methanol was discarded from each of the plates and any liquid remaining in the plate by tapping the plate against paper towels. Cells were then blocked with 150 μL of Odyssey blocking buffer (LI-COR Biosciences #927-50010) using 0.05% Tween for 1 hour at room temperature on a shaker. […] The IC50 values were then calculated with the Graph pad Prism software.

On to `CNCc1ccccc1-c1csc([C@@H](C)Nc2ncc(C#N)c3cc(OC)c(OC)cc23)c1` [Example 1-1, (R)-6,7-dimethoxy-1-((1-(4-(2-((methylamino)methyl)phenyl)thiophen-2-yl)ethyl)amino)isoquinoline-4-carbonitrile], for which the IC50 (commonly the concentration needed to halve the response being measured) came out at 2.05 µM.
